{"source": "patent US8536191B2", "about": "(priority 2010, dated 2013)", "key": {"[1]": {"assay": "Form conversion upon heating (VT-XRPD)", "format": "physicochemical", "details": "before melting, HCl", "protocol": "Variable-temperature X-ray powder diffraction (VT-XRPD) analysis was performed on a Shimadzu XRD-6000 X-ray powder diffractometer equipped with an Anton Paar HTK 1200 high temperature stage. The sample was packed in a ceramic holder and analyzed from 2.5 to 40°2θ at 3°/min (0.4 sec/0.02° step). The heating rate was 10° C./min. Cooling was done by shutting off the furnace. A silicon standard was analyzed to check the instrument alignment. Temperature calibration was performed using vanillin and sulfapyridine standards. Data were collected and analyzed using XRD-6100/7000 v. 5.0. In house software (Pattern Match, SSCI Inc., An Aptuit Company) was used to generate and edit the peak lists. The value of each peak position represents the value at the apex of the peak. In the tables which follow herein, the PXRD peak lists are presented for each solid form along with the conversion to ‘d’ value (assuming a mean Cu Kα wavelength of 1.5418 Å) and relative peak intensities scaled to 100. The relative intensity (“R.I.”) of each peak is shown, wherein Relative Intensity is the ratio of the height of each peak compared to the highest peak, which is designated as 100%."}, "[2]": {"assay": "Physical stability on drying at 60° C.", "details": "dried at 60° C."}, "[3]": {"assay": "Physical stability under mechanical stress (compression, grinding, milling), checked by X-ray powder diffraction", "format": "physicochemical", "protocol": "The crystalline forms of nalbuphine HCl were identified by their powder X-ray diffraction (PXRD) peaks/pattern. PXRD analyses of crystalline Forms A, B, C, D, F, G, H, I, K and amorphous Form Z were performed using an Inel XRG-3000 diffractometer equipped with a CPS (Curved Position Sensitive) detector with a 2θ range of 120°. Real time data were collected using Cu—Kα radiation starting at approximately 4°2θ at a resolution of 0.03°2θ. The tube voltage and amperage were set to 40 kV and 30 mA, respectively. The monochromator slit was set at 5 mm by 160 μm. […] The sample was prepared for analysis by packing into a thin-walled glass capillary. The capillary was mounted onto a goniometer head that is motorized to permit spinning of the capillary during data acquisition. Instrument calibration was performed using a silicon reference standard."}}, "note": "Where two headings read alike, the source gives them in different places.", "data": [{"smiles": "Cl.Oc1ccc2c3c1O[C@H]1[C@@H](O)CC[C@@]4(O)[C@@H](C2)N(CC2CCC2)CC[C@]314", "note": "[Form D, nalbuphine HCl]", "values": [{"measurement": "temperature of conversion to Form F upon heating", "setting": "[1]", "result": "about 180 °C"}]}, {"smiles": "Cl.Oc1ccc2c3c1O[C@H]1[C@@H](O)CC[C@@]4(O)[C@@H](C2)N(CC2CCC2)CC[C@]314", "note": "[Form F, nalbuphine HCl]", "values": [{"measurement": "form change at extremely high humidity", "setting": "85% RH", "result": "converts to Form B (dihydrate)"}]}, {"smiles": "Cl.Oc1ccc2c3c1O[C@H]1[C@@H](O)CC[C@@]4(O)[C@@H](C2)N(CC2CCC2)CC[C@]314", "note": "[Form B, nalbuphine HCl]", "values": [{"measurement": "physical stability when dried", "setting": "[2]", "result": "mostly converting to Form C (monohydrate)"}, {"measurement": "temperature of conversion to Form F upon heating", "setting": "[1]", "result": "about 190 °C"}, {"measurement": "physical stability when milled", "setting": "[3]; milled, X-ray powder diffraction", "result": "physically unstable when milled, losing its crystallinity"}]}, {"smiles": "Cl.Oc1ccc2c3c1O[C@H]1[C@@H](O)CC[C@@]4(O)[C@@H](C2)N(CC2CCC2)CC[C@]314", "note": "[Form A]", "values": [{"measurement": "form change at extremely high humidity", "setting": "97% RH, hydrochloride", "result": "Form B (dihydrate)"}, {"measurement": "form change under mechanical stress", "setting": "[3]; compression or dry grinding", "result": "converting to Form C"}, {"measurement": "effect of further grinding on crystallinity", "setting": "[3]; further grinding, X-ray powder diffraction", "result": "some loss of crystallinity and formed partially amorphous material"}, {"measurement": "form change under mechanical stress", "setting": "[3]; wet grinding", "result": "Form B"}]}, {"smiles": "Cl.Oc1ccc2c3c1O[C@H]1[C@@H](O)CC[C@@]4(O)[C@@H](C2)N(CC2CCC2)CC[C@]314", "note": "[Form C, nalbuphine HCl]", "values": [{"measurement": "temperature of conversion to Form F upon heating", "setting": "[1]", "result": 200, "unit": "°C"}, {"measurement": "form change at extremely high humidity", "setting": "97% RH", "result": "converts to Form B (dihydrate)"}]}]}
